The test system of data set [1] is L1210 murine leukemia cells. The data set is described as follows: cytotoxicity in L1210 leukemia cells. It is filed as cell-based.
Data set [2] has as its system L1210 murine leukemia cells. The data set is described as follows: mitotic index at cytotoxic concentrations. It is filed as cell-based. Particulars: in words.
In data set [3] the test system is tubulin. Nature of the data set: binding of radiolabeled vinblastine to tubulin.
For data set [4], the system named is tubulin. The data set is described as follows: radiolabeled GTP binding to tubulin (nucleotide exchange).
Data set [5] has as its system human tumor cell line panel. The data set is described as follows: NCI in vitro primary screen, pattern of differential growth inhibition / mean graph comparison. The class given is cell-based. Particulars: computerized pattern-recognition analyses. An excerpt:
Only two hundred years ago, many diseases ravaged humankind. Many of these diseases have been controlled or eradicated. In the development of the means to treat or control these diseases, work with the appropriate common experimental animals is of critical importance. With the various types of cancers, and with the HIV virus, such work is presently ongoing. The research for the treatment of various types of cancer is coordinated in the United States by the National Cancer Institute (NCI). NCI, as a government entity, has been charged with assisting all anti-cancer research. To establish whether a substance has anti-cancer activity, NCI has established a variety of protocols one of which involves testing the candidate substance against a cell line panel containing 60 human tumor cell lines. This protocol has been verified, and is generally accepted throughout the scientific community. This protocol and the established statistical means of evaluating the results obtained therefrom have been fully described in the literature See Principles & Practice of Oncology PPO Updates, Volume 3, Number 10, October 1989, by Michael R. Boyd, M.D., Ph.D. for an in depth description of the test protocol. […]

Data set [6] concerns tubulin. The note with it: in words, shown previously; cited from earlier work.
In data set [7] the test system is tubulin. The note with it: in words, shown previously; cited from earlier work. This is another data set of the same source.

What is called IC50 is the midpoint of a concentration-inhibition curve. As for `C=C1C[C@@H]2CC[C@@]34C[C@H]5O[C@H]6[C@@H](O3)[C@H]3O[C@H](CC[C@@H]3O[C@H]6[C@H]5O4)CC(=O)O[C@@H]3[C@@H](C)[C@@H]4O[C@@H]5C[C@]6(C[C@@H]7O[C@]8(C[C@H](C)[C@@H]9O[C@H]([C@@H](O)C[C@@H](O)CO)C[C@@H]9O8)C[C@H](C)[C@@H]7O6)O[C@@H]5C[C@@H]4O[C@H]3C[C@H]3O[C@@H](CC[C@@H]1O2)C[C@@H](C)C3=C` [halichondrin B], 0.2 nM corresponded to half-maximal inhibition in data set [1] (IC50). In data set [2], the “rise in the mitotic index” value is “caused a significant rise in the mitotic index”. Moreover, the “inhibition of binding of radiolabeled vinblastine” value was found to be 51% in the data set on tubulin [3] (5 μM) and 73% in the data set on tubulin [3] (10 μM). Besides, the “inhibition of radiolabeled GTP binding to tubulin” value is 14% in the data set on tubulin [4] (5 μM) and 18% in the data set on tubulin [4] (10 μM). The “correlation of mean graph profiles” value in data set [5] was “strongly correlated with each other and also with the profiles of a general class of tubulin-interactive antimitotics”. Moreover, the “mode of inhibition of vinblastine binding to tubulin” value in the data set on tubulin [6] is listed as “noncompetitive inhibitor of the binding of radiolabeled vinblastine to tubulin”. The “inhibition of nucleotide exchange on tubulin” value with tubulin [7] is given as “inhibit nucleotide exchange on tubulin”.

Regarding `C=C1C[C@@H]2CC[C@@]34C[C@H]5O[C@H]6[C@@H](O3)[C@H]3O[C@H](CC[C@@H]3O[C@H]6[C@H]5O4)CC(=O)O[C@@H]3[C@@H](C)[C@@H]4O[C@@H]5C[C@]6(C[C@@H]7O[C@]8(C[C@H](C)[C@@H]9O[C@@H]%10CC(C(O)CO)O[C@@H]%10C[C@@H]9O8)C[C@H](C)[C@@H]7O6)O[C@@H]5C[C@@H]4O[C@H]3C[C@H]3O[C@@H](CC[C@@H]1O2)C[C@@H](C)C3=C` (stereo partly shown) [homohalichondrin B], the “correlation of mean graph profiles” value in data set [5] is “strongly correlated with each other and also with the profiles of a general class of tubulin-interactive antimitotics”.

The values above are taken from US5426194A, “Isolation and structure of Halistatin 1” (Arizona Board of Regents, a body corporate acting on behalf …, priority 1993, dated 1995).
